Experimental data as given in US6624144B1, “Matrix metalloproteinase inhibitors and down-regulators” (CTT Cancer Targeting Technologies Oy, priority 1998, dated 2003).
Bridge positions count the residues as written; N and C are the ends. Ends that are not written are not given here. Peptide text beside a SMILES is read from it.

Experiments:
APMA-activated MMP-9 = target: T1, APMA-activated MMP-9 (Homo sapiens, UniProt P14780); assay: [125I]-gelatin degradation by APMA-activated MMP-9; assay type: biochemical; conditions: APMA-activated MMP-9; read-out: half-maximal inhibitory value (IC50), [125I]-gelatin degradation (converted)
T1 construct: from tissue; host or cells: human neutrophils
Procedure: (§1) ProMMP-9 was purified from human neutrophils and activated with aminophenyl mercuric acetate (APMA) essentially as described by Hibbs et al. (1985). For the selection of MMP-9 binding phage, APMA-activated MMP-9 was coated on microtiter wells overnight at 4° C. using a concentration of 1 μg/ml, after which the […] were saturated with 5 % bovine serum albumin. In the first panning, the library was incubated overnight at 4° C. in 50 mM Tris-HCl/0.1 M NaCl buffer (pH 7.5) (TBS) containing 1% bovine serum albumin, and after extensive washing the bound phage were eluted with low pH buffer. In the subsequent pannings, the amplified phage were allowed to bind for 1 h at 22° C. […] The bound phage were quantitated by adding 50 ng per well of anti-M13 antibody (Pharmacia, Uppsala, Sweden) labeled with an Europium-chelate (Wallac Ltd., Turku, Finland). After incubation for 45 min followed by washing, the fluorescence was measured with 1230 Arcus fluorometer (Wallac Ltd., Turku, Finland).
(§2) For the gelatin and casein degradation assays, purified MMP-2 and MMP-9 (50-100 ng) were first incubated for 60 min with various concentrations of the peptide inhibitors, after which a 21 kDa β-casein (52 μM) or [^125I]-gelatin substrate was added. After incubation for 2 h at 22 ° C., degradation of the casein was analyzed by SDS gel electrophoresis. […]

proMMP-9 = target: T2, proMMP-9 (Homo sapiens, UniProt P14780); assay: [125I]-gelatin degradation by proMMP-9 (autoactivating); assay type: biochemical; conditions: peptide 10 μg/ml
T2 construct: from tissue; host or cells: human neutrophils
Procedure: as §1, §2

MMP-2 = target: T3, MMP-2 (Homo sapiens, UniProt P08253); assay: β-casein degradation by MMP-2 (SDS gel); assay type: biochemical; conditions: APMA-activated MMP-2, β-casein
T3 construct: endogenous in cells; host or cells: human gingival fibroblasts (serum-free culture medium)
T3 sequence (P08253 110-660): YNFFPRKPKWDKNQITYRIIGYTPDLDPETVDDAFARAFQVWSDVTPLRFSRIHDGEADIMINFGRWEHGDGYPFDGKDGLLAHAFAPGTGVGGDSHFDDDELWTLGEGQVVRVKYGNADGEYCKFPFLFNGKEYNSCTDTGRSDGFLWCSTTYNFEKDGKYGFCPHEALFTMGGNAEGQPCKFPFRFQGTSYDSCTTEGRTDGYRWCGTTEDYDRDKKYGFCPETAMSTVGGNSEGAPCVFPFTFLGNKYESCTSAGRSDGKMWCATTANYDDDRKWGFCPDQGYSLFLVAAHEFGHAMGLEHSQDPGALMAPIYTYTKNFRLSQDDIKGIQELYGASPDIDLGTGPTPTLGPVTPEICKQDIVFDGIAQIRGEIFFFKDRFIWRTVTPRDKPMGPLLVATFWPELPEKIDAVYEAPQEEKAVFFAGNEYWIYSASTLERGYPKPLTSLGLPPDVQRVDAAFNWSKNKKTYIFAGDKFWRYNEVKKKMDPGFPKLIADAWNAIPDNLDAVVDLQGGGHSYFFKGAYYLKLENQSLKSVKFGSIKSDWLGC
Procedure: (§3) After 1 h pretreatment with the peptides, APMA-activated MMP-2 (A, C) or proMMP-2 (B, D) was incubated with the casein for 2 h. 52 μM β-casein was used as substrate for MMPs. Shown is Coomassie Blue-staining of the 21 kD β-casein (lane 1) and its fragments (lanes 2-9) resolved by SDS-PAGE (A, B); CTTHWGFTLC(SEQ ID NO:3) was used at the concentrations of (2) 0 μg/ml, (3) 75, (4) 50, (5) 25, (6) 10, (7) 5, (8) 1, and (9) 0.5 μg/ml in the lanes 2-9, respectively. (C, D); the concentrations of CRRHWGFEFC(SEQ ID. NO:2) were 0, 250, 100, 50, 25, 10, 1, and 0.5 μg/ml, respectively.
(§4) For the gelatin and casein degradation assays, purified MMP-2 and MMP-9 (50-100 ng) were first incubated for 60 min with various concentrations of the peptide inhibitors, after which a 21 kDa β-casein (52 μM) or [^125I]-gelatin substrate was added. After incubation for 2 h at 22 ° C., degradation of the casein was analyzed by SDS gel electrophoresis. The degradation of [^125I]-gelatin was determined by counting radioactivity in the supernatant after precipitation of undegraded gelatin with 20% trichloroacetic acid.
(§5) We also used β-casein as a substrate for the gelatinases and analyzed the degradation products by SDS gel electrophoresis.

proMMP-2 = target: T4, proMMP-2 (Homo sapiens, UniProt P08253); assay: β-casein degradation by proMMP-2 not preactivated with APMA; assay type: biochemical
T4 construct: endogenous in cells; host or cells: human gingival fibroblasts (serum-free culture medium)
T4 sequence (P08253 30-660 limits assumed): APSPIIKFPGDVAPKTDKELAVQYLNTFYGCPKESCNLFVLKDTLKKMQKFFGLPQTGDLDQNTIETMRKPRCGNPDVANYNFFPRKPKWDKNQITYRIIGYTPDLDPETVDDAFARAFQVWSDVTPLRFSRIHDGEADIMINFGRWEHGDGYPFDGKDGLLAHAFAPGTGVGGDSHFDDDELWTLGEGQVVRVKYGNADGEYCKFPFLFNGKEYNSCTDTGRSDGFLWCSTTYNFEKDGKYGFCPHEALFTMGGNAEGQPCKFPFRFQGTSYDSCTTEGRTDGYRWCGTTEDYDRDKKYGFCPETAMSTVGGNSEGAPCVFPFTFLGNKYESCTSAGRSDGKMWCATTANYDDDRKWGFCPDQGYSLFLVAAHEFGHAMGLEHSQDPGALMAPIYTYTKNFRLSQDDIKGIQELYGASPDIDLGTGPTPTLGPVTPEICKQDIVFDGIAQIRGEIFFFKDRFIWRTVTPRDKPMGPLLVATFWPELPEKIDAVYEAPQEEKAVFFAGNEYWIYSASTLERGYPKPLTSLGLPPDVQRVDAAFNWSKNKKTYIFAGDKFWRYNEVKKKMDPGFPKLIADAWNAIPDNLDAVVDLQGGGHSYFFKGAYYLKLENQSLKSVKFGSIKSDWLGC
Procedure: as §3, §4, §5

[1] = Toxicity when injected into animals; conditions: in vivo
[2] = Solubility in aqueous buffers
[3] = system: HT1080 fibrosarcoma cells; assay: Transwell random migration of HT1080 cells; assay type: cell-based; conditions: 500 μg/ml, control peptides
Procedure: The endothelial cell line HUVEC (human umbilical vein endothelial cells, obtained from the ATCC, Rockville, Md.) was grown in RPMI 1640 medium containing penicillin (100 units/ml), streptomycin (100 μg/ml), 10 mM HEPES, 30 μg/ml endothelial cell growth supplement (Biomedical Technologies, Stoughton, Mass.), and 20% fetal calf serum. The HT1080 fibrosarcoma cells (ATCC, Rockville, Md.), C8161 melanoma cells and Eahy926 cells (derivative of HUVEC) were cultured in Dulbecco's modified Eagle's medium containing the antibiotics, 10% fetal calf serum, and hypoxanthine/aminopterin/thymidine additive with the Eahy926 cells. Cultures of cells were harvested with trypsin-EDTA (endothelial cells) or EDTA alone (other cells), washed, and resuspended in the full serum-containing media as indicated above.
Random cell migration was studied using […] pore size and 6.5 mm diameter Transwell inserts (Costar, Cambridge, Mass.) that were equilibrated in the serum-containing medium for 2 h before use. Tumor cell invasion was studied using 6.4 mm diameter Boyden chambers precoated with Matrigel (Becton Dickinson, Bedford, MA) and equilibrated in the serum-containing medium. […] Cells were removed from the upper surface of the membrane with a cotton swab, and the cells migrated on the undersite of the membrane were counted microscopically, or alternatively quantitated by scanning.

T2 sequence (P14780 20-707 limits assumed): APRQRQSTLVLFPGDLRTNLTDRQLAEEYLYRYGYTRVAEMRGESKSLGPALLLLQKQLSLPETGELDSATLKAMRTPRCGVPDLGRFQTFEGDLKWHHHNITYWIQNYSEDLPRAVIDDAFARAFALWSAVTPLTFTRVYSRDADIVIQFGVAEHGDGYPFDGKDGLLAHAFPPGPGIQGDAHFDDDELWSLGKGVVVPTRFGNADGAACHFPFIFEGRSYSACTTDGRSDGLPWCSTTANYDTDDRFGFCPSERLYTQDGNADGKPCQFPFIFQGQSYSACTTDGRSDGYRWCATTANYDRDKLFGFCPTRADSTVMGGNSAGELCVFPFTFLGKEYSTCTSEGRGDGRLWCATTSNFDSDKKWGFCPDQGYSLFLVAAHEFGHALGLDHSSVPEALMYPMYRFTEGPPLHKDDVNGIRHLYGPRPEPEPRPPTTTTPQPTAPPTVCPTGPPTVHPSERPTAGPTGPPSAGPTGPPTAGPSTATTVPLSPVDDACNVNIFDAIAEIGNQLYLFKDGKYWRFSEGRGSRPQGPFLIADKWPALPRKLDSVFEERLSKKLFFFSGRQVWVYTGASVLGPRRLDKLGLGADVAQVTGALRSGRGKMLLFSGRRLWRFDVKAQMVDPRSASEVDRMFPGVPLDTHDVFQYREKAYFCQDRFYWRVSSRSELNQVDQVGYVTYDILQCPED
T1 sequence (P14780 107-707 limits assumed): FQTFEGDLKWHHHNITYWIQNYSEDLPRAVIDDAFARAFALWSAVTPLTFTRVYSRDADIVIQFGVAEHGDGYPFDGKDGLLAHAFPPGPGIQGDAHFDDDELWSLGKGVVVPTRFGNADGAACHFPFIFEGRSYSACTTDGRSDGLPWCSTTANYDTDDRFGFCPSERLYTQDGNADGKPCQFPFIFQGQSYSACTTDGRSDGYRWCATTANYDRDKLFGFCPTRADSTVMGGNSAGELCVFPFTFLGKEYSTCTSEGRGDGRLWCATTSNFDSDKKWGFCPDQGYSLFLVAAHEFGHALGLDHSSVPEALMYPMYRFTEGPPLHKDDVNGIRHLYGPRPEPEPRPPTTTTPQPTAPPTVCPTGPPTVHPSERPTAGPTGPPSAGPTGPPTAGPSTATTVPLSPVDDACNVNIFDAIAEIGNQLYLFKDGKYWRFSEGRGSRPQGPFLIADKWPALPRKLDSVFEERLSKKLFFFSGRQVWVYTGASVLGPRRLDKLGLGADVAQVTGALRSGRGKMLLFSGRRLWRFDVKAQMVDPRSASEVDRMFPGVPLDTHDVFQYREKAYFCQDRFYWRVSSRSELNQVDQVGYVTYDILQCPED

| Compound | IC50 (MMP-2) [µM] | IC50 (proMMP-2) [µM] | solubility [2] | further results |
| --- | --- | --- | --- | --- |
| N=C(N)NCCC[C@@H]1NC(=O)[C@H](CCCNC(=N)N)NC(=O)[C@@H](N)CSSC[C@@H](C(=O)O)NC(=O)[C@H](Cc2ccccc2)NC(=O)[C@H](CCC(=O)O)NC(=O)[C@H](Cc2ccccc2)NC(=O)CNC(=O)[C@H](Cc2c[nH]c3ccccc23)NC(=O)[C@H](Cc2c[nH]cn2)NC1=O [CRRHWGFEFC] (H-CRRHWGFEFC-OH; disulfide 1-10; N-terminus and C-terminus assumed) | ~18.7 | 18.7 | – | IC50 (APMA-activated MMP-9): ~7.47 µM; inhibition of proMMP-9 gelatinolytic activity (proMMP-9): more than 50% |
| CC(C)C[C@@H]1NC(=O)[C@H]([C@@H](C)O)NC(=O)[C@H](Cc2ccccc2)NC(=O)CNC(=O)[C@H](Cc2c[nH]c3ccccc23)NC(=O)[C@H](Cc2c[nH]cn2)NC(=O)[C@H]([C@@H](C)O)NC(=O)[C@H]([C@@H](C)O)NC(=O)[C@@H](N)CSSC[C@@H](C(=O)O)NC1=O [CTTHWGFTLC] (H-CTTHWGFTLC-OH; disulfide 1-10; N-terminus and C-terminus assumed) | ~4.29 | 4.29 | – | toxicity when injected into animals [1]: no toxicity |
| CQWNNDNPLFKEAEEEVMNPKFAES | – | – | highly soluble | – |
| EVGTGSCNLECVSTNPLSGTEQ (Targeted to Homo sapiens) | – | – | highly soluble | effect on cell migration [3]: None of these control peptides affected cell migration |
| RAVRALWRC [RAVRALWRC] | – | – | highly soluble | – |
